Laboratory results taken from ChEMBL document CHEMBL3769377, “A synthesis, in silico, in vitro and in vivo study of thieno[2,3-b]pyridine anticancer analogues” (Medchemcomm, 2015).
Active and inactive are the calls of the source. No cut-off for these calls is given here.

Legend:
[1] = test system: Tyrosine-protein kinase ABL1 (Homo sapiens), P00519 [T315I]; experiment: Inhibition of human recombinant phosphorylated ABL1 T315I mutant assessed as residual activity at 10 uM after 1 hr by qPCR analysis relative to control
[2] = molecular target: Mitogen-activated protein kinase 10 (Homo sapiens) (UniProt P53779); experiment: Inhibition of human recombinant JNK3 assessed as residual activity at 10 uM after 1 hr by qPCR analysis relative to control
Mitogen-activated protein kinase 10 (Homo sapiens), sequence (P53779 whole entry): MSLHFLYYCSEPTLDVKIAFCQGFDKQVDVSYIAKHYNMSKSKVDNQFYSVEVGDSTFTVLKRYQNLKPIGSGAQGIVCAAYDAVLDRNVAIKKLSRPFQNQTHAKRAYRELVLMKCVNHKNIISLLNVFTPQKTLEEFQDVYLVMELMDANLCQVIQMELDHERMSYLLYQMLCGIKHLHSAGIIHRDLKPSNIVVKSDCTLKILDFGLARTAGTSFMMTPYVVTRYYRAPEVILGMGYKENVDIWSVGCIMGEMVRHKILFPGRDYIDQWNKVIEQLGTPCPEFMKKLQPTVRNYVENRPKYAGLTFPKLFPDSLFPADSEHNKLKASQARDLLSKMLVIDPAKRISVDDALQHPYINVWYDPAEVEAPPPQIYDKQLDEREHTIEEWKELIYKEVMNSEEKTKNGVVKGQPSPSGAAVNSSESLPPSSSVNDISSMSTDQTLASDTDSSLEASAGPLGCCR

[3] = molecular target: Serine/threonine-protein kinase pim-1 (Homo sapiens) (UniProt P11309); experiment: Inhibition of human recombinant PIM1 assessed as residual activity at 10 uM after 1 hr by qPCR analysis relative to control
Serine/threonine-protein kinase pim-1 (Homo sapiens), sequence (P11309 whole entry, looked up): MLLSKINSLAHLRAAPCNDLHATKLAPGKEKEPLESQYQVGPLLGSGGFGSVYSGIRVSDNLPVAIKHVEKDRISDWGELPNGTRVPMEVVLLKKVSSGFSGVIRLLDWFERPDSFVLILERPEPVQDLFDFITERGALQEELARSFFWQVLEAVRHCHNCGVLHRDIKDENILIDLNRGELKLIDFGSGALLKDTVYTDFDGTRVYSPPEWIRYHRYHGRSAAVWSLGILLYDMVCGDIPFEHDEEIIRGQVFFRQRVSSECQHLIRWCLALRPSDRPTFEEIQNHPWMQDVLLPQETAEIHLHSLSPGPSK

[4] = molecular target: Mitogen-activated protein kinase 9 (Homo sapiens) (UniProt P45984); experiment: Inhibition of human recombinant JNK2 assessed as residual activity at 10 uM after 1 hr by qPCR analysis relative to control
Mitogen-activated protein kinase 9 (Homo sapiens), sequence (P45984 whole entry, looked up): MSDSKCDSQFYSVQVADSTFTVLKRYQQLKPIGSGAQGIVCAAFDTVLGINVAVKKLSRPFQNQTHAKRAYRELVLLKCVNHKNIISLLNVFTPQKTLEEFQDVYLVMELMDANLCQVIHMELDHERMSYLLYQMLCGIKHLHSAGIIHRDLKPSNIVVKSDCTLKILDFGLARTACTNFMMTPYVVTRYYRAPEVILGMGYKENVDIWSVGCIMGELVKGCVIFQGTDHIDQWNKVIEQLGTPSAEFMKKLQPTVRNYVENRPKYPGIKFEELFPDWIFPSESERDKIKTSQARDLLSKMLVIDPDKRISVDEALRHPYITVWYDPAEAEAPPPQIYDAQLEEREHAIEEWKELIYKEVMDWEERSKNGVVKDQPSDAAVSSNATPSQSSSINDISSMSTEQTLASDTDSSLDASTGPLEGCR

[5] = molecular target: NUAK family SNF1-like kinase 2 (Homo sapiens) (UniProt Q9H093); experiment: Inhibition of human recombinant SNARK assessed as residual activity at 10 uM after 1 hr by qPCR analysis relative to control
NUAK family SNF1-like kinase 2 (Homo sapiens), sequence (Q9H093 whole entry): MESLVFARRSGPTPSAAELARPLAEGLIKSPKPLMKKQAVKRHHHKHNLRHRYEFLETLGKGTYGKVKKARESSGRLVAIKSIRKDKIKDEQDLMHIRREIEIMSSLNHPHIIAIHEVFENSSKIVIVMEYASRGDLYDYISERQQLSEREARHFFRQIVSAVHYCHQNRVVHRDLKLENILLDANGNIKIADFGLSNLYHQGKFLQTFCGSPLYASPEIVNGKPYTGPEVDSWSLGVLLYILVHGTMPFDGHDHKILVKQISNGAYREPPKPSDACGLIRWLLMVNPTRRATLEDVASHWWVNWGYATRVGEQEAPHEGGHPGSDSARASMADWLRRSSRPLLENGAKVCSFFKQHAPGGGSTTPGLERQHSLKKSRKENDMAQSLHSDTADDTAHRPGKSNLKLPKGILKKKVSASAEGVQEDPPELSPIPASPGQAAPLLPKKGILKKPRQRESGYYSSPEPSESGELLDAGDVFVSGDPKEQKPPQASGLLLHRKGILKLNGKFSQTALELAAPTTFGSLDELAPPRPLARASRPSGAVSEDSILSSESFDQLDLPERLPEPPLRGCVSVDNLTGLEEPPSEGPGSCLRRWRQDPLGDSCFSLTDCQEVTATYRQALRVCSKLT

[6] = molecular target: Tyrosine-protein kinase ABL1 (Homo sapiens) (UniProt P00519); experiment: Inhibition of human recombinant non-phosphorylated ABL1 assessed as residual activity at 10 uM after 1 hr by qPCR analysis relative to control
[7] = test system: Tyrosine-protein kinase ABL1 (Homo sapiens), P00519 [E255K]; experiment: Inhibition of human recombinant phosphorylated ABL1 E255K mutant assessed as residual activity at 10 uM after 1 hr by qPCR analysis relative to control
[8] = molecular target: Angiopoietin-1 receptor (Homo sapiens) (UniProt Q02763); experiment: Inhibition of human recombinant TIE2 assessed as residual activity at 10 uM after 1 hr by qPCR analysis relative to control
Angiopoietin-1 receptor (Homo sapiens), sequence (Q02763 whole entry): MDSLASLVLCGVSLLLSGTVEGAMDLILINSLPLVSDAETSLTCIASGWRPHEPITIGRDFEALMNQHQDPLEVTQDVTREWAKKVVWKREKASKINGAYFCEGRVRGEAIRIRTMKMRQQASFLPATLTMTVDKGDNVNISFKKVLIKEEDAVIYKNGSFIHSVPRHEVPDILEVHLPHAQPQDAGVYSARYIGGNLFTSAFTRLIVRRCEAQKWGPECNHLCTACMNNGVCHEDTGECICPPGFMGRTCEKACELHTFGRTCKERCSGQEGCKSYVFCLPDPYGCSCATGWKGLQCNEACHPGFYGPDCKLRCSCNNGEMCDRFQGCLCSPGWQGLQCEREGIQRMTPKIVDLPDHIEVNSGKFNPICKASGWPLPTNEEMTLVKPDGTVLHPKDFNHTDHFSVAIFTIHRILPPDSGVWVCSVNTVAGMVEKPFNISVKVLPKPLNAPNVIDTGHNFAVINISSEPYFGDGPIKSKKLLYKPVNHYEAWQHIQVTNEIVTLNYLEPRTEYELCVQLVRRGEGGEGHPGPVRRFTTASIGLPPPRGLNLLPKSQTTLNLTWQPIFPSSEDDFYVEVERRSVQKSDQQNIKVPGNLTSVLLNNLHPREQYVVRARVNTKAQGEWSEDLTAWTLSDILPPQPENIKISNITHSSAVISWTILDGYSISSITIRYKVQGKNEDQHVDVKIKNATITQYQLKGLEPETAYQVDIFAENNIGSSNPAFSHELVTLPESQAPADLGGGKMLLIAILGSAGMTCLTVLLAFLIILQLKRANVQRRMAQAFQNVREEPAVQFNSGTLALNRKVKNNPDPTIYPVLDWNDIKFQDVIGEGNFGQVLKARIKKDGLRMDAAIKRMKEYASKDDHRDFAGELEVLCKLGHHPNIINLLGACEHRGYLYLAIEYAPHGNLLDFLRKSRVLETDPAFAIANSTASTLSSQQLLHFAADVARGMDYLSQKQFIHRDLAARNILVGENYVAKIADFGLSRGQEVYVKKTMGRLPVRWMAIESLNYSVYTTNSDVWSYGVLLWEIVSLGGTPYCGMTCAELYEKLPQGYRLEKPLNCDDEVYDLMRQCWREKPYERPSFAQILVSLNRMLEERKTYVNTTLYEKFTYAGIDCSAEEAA

786-0 = experiment: Antitumor activity against human 786-0 cells xenografted in athymic nude/beige mouse assessed as tumor growth inhibition at 0.16 mg/kg, ip qd after 24 days; assay type: functional, organism-based
[9] = molecular target: High affinity nerve growth factor receptor (Homo sapiens) (UniProt P04629); experiment: Inhibition of human recombinant TRKA assessed as residual activity at 10 uM after 1 hr by qPCR analysis relative to control
High affinity nerve growth factor receptor (Homo sapiens), sequence (P04629 33-796 limits assumed): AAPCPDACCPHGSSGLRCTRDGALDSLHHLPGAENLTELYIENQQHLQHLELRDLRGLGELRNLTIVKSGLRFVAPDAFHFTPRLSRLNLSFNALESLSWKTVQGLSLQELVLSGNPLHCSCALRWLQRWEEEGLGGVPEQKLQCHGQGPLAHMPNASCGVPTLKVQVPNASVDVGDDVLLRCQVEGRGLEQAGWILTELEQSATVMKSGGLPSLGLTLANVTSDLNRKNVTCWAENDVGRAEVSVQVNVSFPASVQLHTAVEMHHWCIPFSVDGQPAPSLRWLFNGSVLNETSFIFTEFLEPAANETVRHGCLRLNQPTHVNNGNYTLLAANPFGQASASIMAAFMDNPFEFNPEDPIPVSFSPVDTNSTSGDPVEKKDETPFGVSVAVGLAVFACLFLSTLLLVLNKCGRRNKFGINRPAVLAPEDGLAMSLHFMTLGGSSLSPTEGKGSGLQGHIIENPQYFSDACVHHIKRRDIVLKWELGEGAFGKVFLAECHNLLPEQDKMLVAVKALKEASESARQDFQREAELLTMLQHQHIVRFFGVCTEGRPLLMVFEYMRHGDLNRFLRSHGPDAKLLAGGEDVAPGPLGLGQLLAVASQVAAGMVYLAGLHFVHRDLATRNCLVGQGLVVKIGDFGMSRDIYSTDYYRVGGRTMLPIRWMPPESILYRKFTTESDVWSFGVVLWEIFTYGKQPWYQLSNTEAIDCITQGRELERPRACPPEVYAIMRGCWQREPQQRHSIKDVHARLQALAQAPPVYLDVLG

[10] = molecular target: Serine/threonine-protein kinase pim-3 (Homo sapiens) (UniProt Q86V86); experiment: Inhibition of human recombinant PIM3 assessed as residual activity at 10 uM after 1 hr by qPCR analysis relative to control
[11] = molecular target: Serine/threonine-protein kinase PAK 4 (Homo sapiens) (UniProt O96013); experiment: Inhibition of human recombinant PAK4 assessed as residual activity at 10 uM after 1 hr by qPCR analysis relative to control
Serine/threonine-protein kinase PAK 4 (Homo sapiens), sequence (O96013 whole entry, looked up): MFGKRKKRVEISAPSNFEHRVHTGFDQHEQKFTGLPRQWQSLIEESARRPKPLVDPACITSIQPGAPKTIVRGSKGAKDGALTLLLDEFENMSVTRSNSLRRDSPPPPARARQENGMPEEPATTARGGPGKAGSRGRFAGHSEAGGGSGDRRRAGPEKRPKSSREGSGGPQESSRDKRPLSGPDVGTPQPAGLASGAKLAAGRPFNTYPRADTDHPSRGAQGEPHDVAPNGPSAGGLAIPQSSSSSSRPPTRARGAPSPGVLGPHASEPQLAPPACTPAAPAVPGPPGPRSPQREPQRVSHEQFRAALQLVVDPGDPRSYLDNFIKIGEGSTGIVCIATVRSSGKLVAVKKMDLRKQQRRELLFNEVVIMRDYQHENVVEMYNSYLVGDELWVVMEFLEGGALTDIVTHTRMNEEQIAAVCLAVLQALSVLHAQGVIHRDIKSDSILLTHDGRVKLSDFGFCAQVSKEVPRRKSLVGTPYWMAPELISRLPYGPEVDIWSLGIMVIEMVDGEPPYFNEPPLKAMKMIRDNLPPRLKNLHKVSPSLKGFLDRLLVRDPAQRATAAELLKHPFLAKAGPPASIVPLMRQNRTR

## Cc1c(Cl)cccc1NC(=O)c1sc2nc3c(cc2c1N)C(=O)CC3
[1]
  Activity: 90%
[2]
  Activity: 95%
[3]
  Activity: 73%
[4]
  Activity: 93%
[5]
  Activity: 100%
[6]
  Activity: 98%
[7]
  Activity: 100%
[8]
  Activity: 100%
786-0
  TGI: Active
[9]
  Activity: 84%
[10]
  Activity: 92%
[11]
  Activity: 85%
